No end group written: not given here. *: point of attachment. MTSSL = S-(1-oxyl-2,2,5,5-tetramethyl-2,5-dihydro-1H-pyrrol-3-yl)methyl methanesulfonothioate spin label conjugate, CC1(C)C=C(CS*)C(C)(C)N1[O]
Legend:
[1] = UV-VIS titration of peptides with Cu(I), absorption at 265 nm; type: binding; conditions: for absorption at 265 nm upon addition of Cu(I) (Cu(I) binding): 3-20 molar equivalents of Cu(I)
Description: UV-Visible-IR absorption spectra were obtained using a Cary® Bio 100 spectrophotometer, or using a Chirascan™ spectrometer (Applied Photophysics), at room temperature with a 1 mm optical path-length cell. Acetone was used as a reference. Typically, peptides were measured at a concentration of 0.3 mg/ml. Difference absorption spectra were obtained for peptides titrated with Cu(I) from 200 to 600 nm with a step size and a bandwidth of 0.5 nm.
Cu(I) was added to peptide solutions in the form of tetrakis(acetonitrile)copper(I) hexafluorophosphate under nitrogen gas in order to preserve anaerobic conditions. No Cu(II) signal was observed by EPR, thereby confirming the purity of the Cu(I).
In order to gain further insight into Cu(I) coordination, UV-VIS measurements were performed on the various peptides (as described n the Materials and Methods section hereinabove).

[2] = EPR of ATSM-Cu(II) complex after addition of ligands; type: physicochemical; conditions: 0.1 mM ATSM-Cu(II), 4 molar equivalents of ligand; 30% DMSO, 0.1 M phosphate buffer (pH 7.4)
Description: (§1) The stability of the ATSM-Cu(II) complex was tested by using UV-visible spectrophotometry. […] In order to confirm the dissociation of ATSM-Cu(II) complex or the formation of copper complex with ligands or copper chelation by ligands, the effect of ligands on ATSM-Cu(II) was also tested using electron paramagnetic resonance (EPR) spectroscopy.
The stability of ASTM-Cu(II) complex was further studied by EPR spectroscopy. 0.1 mM of ATSM-Cu(II) complex was prepared in 30% DMSO and 0.1 M phosphate buffer (pH 7.4).

[3] = UV-visible titration of ATSM-Cu(II) complex with Cu(II) chelators and peptides (311 nm / 465 nm); type: physicochemical; conditions: 30% DMSO in 0.1 M phosphate buffer (pH 7.4)
Description: as §1
Stock solutions of CuCl2 (10 mM), 1,10-phenanthroline (10 mM), IDA (10 mM), and L-histidine (10 mM), NTA (5 mM) and Pep1 (5 mM) were prepared in ultrapure water (Milli-Q®). Stock solutions (1 mM) of HAGAH, HGGH and HTGMK peptides were prepared by dissolution in 0.1 M phosphate buffer (pH 7.4).
In order to facilitate the solubility of ATSM-Cu(II) complex, all the measurements were carried out in 30% DMSO in 0.1 M phosphate buffer (pH 7.4), at physiological conditions.

[4] = tested on: DA3 breast cancer cells; assay: Cu(I) levels in cells by bicinchoninic acid (BCA) absorption at 562 nm; type: cell-based
Description: The interaction between cells and Cu(II)-ligand-peptide complexes under various conditions was investigated by contacting DA3 breast cancer cells with a Cu(II)-IDA-Cys1 complex (prepared as described in Example 2) or with CuCl2 as a control. The concentration of reduced copper (Cu(I)) was then determined by complexation with bicinchoninic acid (BCA) and evaluating the concentration of BCA-Cu(I) by measuring absorption at a wavelength of 562 nm.

[5] = UV-visible spectrophotometry of Tyr-peptide binding to Cu(II), absorption at 276 nm
Description: In order to compare affinity of peptides to Cu(II)-ligand-peptide complexes, UV-visible spectrophotometry was used to assess the degree of incorporation of Cys1-Tyr (SEQ ID NO: 51) and Met1-Tyr (SEQ ID NO: 50) peptides into Cu(II)-containing complexes, at various concentrations of Cu(II), IDA and peptide. The spectrophotometry focused on changes in Tyr residue absorption at about 276 nm. […]
In addition, 1 mM of peptide (16.6 μl) with 1 mM CuCl2 (12.5 μl) in ultrapure water (258.4 μl) was titrated with various concentrations (ranging from 0.25 to 1 mM or 0.25 to 1.25 mM) of IDA.

[6] = Reduction of Cu(II) to Cu(I) by ascorbate in the presence of peptide, followed by room temperature EPR intensity; conditions: within 4000 seconds; 2 mM ascorbate; peptide:ascorbate:Cu(II) 1:2:2; room temperature
Description: For measuring Cu(II) reduction by EPR spectroscopy, 20 μl of aqueous CuCl2 solution (2 mM) was added to 20 μl of a solution of a tested peptide (1 mM). At time zero, 20 μl of ascorbic acid solution (2 mM) was added, and the solution was mixed under anaerobic conditions. Cu(II) EPR signal intensity (at the maximum EPR signal intensity (g⊥ position)) was measured as a function of time.
The effects of the mutations of the Pep2-Pep5 peptides on the reduction of Cu(II) to Cu(I) was then investigated, by evaluating the room temperature (RT) change in EPR intensity over time, as Cu(I) is EPR-silent. Reduction of Cu(II) was effected in the presence of 2 mM ascorbate (a peptide:ascorbate:Cu(II) molar ratio of 1:2:2). For comparison, the reduction of free Cu(II) in buffer was also measured.

[7] = Low temperature CW-EPR of Cu(II) binding to Ctr1 N-terminal peptides in KPi buffer; conditions: 130 K
Description: Continuous wave electron […] (CW-EPR) spectra were recorded using an Elexsys™ E500 spectrometer (Bruker) operating at 9.0-9.5 GHz, equipped with a super-high-sensitivity CW resonator. The spectra were recorded at room temperature (RT; 295±2 K) or at low temperature (130±5 K) at a microwave power of 20.0 mW, modulation amplitude of 1.0 G, time constant of 60 or 80 milliseconds, and receiver gain of 60.0 dB. The samples were measured in 0.8 mm or 1.0 mm capillary quartz tubes (VitroCom) at RT. Solutions that were measured at low temperature were mixed with 20% glycerol, and measured in a 3.0 mm or 4.0 mm Wilmad® quartz tube.
Simulation of CW-EPR spectra was performed using MATLAB, with the EasySpin™ toolbox, according to procedures described by Stoll & Schweiger [J Magn Reson 2006, 178:42-55]. In fitting a spectrum to a simulation, emphasis is placed on small peaks of in the region of under 3000G.
The abovementioned peptides Pep1-Pep5 were investigated by CW-EPR measurements at low temperature (130 K), in the presence of different concentrations of Cu(II). The data were subsequently incorporated into simulations using the EasySpin™ tool box, and the first coordination sphere of Cu(II) was determined for each peptide, according to procedures described in Peisach & Blumberg [Arch Biochem Biophys 1974, 165:691-708]. The experimental data and comparisons with simulated data (including parameters derived from the simulations) for peptides Pep1-Pep5, at a variety of peptide:Cu(II) molar ratios, are presented in FIGS. 7-11. FIG. 12 presents the experimental data and comparisons with simulated data for peptides Pep1-Pep5 at a peptide:Cu(II) molar ratio of 1:1.
The simulation for each peptide took into account two Cu(II) species. The first species corresponds to free Cu(II) ions in water, where Cu(II) is coordinated to four oxygen atoms (4O coordination), with g∥=2.39±0.005, A∥=154±2.0 G. The second species corresponds to Cu(II) that is bound to the peptide with coordination of 3N1O or 2N2O.

Compound: MTSSL-CMDHSHHMGMSYADSC-MTSSL (C(MTSSL)MDHSHHMGMSYADSC(MTSSL)-NH2; N-terminus assumed; SMILES CSCC[C@H](NC(=O)CNC(=O)[C@H](CCSC)NC(=O)[C@H](Cc1c[nH]cn1)NC(=O)[C@H](Cc1c[nH]cn1)NC(=O)[C@H](CO)NC(=O)[C@H](Cc1c[nH]cn1)NC(=O)[C@H](CC(=O)O)NC(=O)[C@H](CCSC)NC(=O)[C@@H](N)CSSCC1=CC(C)(C)N([O])C1(C)C)C(=O)N[C@@H](CO)C(=O)N[C@@H](Cc1ccc(O)cc1)C(=O)N[C@@H](C)C(=O)N[C@@H](CC(=O)O)C(=O)N[C@@H](CO)C(=O)N[C@@H](CSSCC1=CC(C)(C)N([O])C1(C)C)C(N)=O) [Pep10]
- absorption at 265 nm upon addition of Cu(I) (Cu(I) binding) [1]: did not change upon addition of Cu(I)

Compound: N[C@@H](Cc1c[nH]cn1)C(=O)O [L-His, L-histidine]
- effect on electron paramagnetic spectrum of ATSM-Cu(II) complex [2]: induced significant changes
- molar equivalents sufficient/needed to remove copper from the ATSM-Cu(II) complex [3]: at least four molar equivalents

Compound: [Cl][Cu][Cl] [free Cu(II) ions, CuCl2]
- time for which Cu(I) concentration in cells is maintained ([4]; 1.5 mM): depleted from the cell within several hours
- Cu(I) ions in cells, hypoxic vs normoxic conditions ([4]; 1.5 mM, 2, 6 or 24 hours after exposure): more Cu(I) ions are observed in cells under hypoxic conditions than under normoxic conditions
- entry of copper into cells in the presence of Ag(I) ions, a Ctr1 inhibitor ([4]; 3 mM Ag(I) ions, 1.5 mM copper species): not blocked

Compound: MYGMKGMSY [Met1-Tyr]
- IDA-dependent change in absorption at 276 nm ([5]; 1 mM peptide, 1 mM CuCl2, titrated with IDA): larger IDA-dependent change in absorption than did Cys1-Tyr

Compound: MTSSL-CMDHSHHAGMSYMDSC-MTSSL (C(MTSSL)MDHSHHAGMSYMDSC(MTSSL)-NH2; N-terminus assumed; SMILES CSCC[C@H](NC(=O)CNC(=O)[C@H](C)NC(=O)[C@H](Cc1c[nH]cn1)NC(=O)[C@H](Cc1c[nH]cn1)NC(=O)[C@H](CO)NC(=O)[C@H](Cc1c[nH]cn1)NC(=O)[C@H](CC(=O)O)NC(=O)[C@H](CCSC)NC(=O)[C@@H](N)CSSCC1=CC(C)(C)N([O])C1(C)C)C(=O)N[C@@H](CO)C(=O)N[C@@H](Cc1ccc(O)cc1)C(=O)N[C@@H](CCSC)C(=O)N[C@@H](CC(=O)O)C(=O)N[C@@H](CO)C(=O)N[C@@H](CSSCC1=CC(C)(C)N([O])C1(C)C)C(N)=O) [Pep8]
- absorption at 265 nm upon addition of Cu(I) (Cu(I) binding) [1]: did not change upon addition of Cu(I)

Compound: KSMAACAM (Cys1 peptide sequence)
- affinity to Cu(II), comparison of peptides ([5]; from Cys1-Tyr and Met1-Tyr titrations): considerably stronger affinity to Cu(II) than does Met1

Compound: MDASHHMGMSYMDS (Pep3 peptide amino acid sequence)
- Cu(II) reduced [6]: about 5%
- percentage of Cu(II) bound to peptide (species other than 4O coordination) ([7]; peptide:Cu(II) molar ratio 1:0.6): 70%
- percentage of Cu(II) bound to peptide (species other than 4O coordination) ([7]; peptide:Cu(II) molar ratio 1:0.8): 70%
- percentage of Cu(II) bound to peptide (species other than 4O coordination) ([7]; peptide:Cu(II) molar ratio 1:1.4): 63%
- percentage of Cu(II) bound to peptide (species other than 4O coordination) ([7]; peptide:Cu(II) molar ratio 1:2): 55%
- percentage of Cu(II) bound to peptide (species other than 4O coordination) ([7]; peptide:Cu(II) molar ratio 1:3): 55%
- Cu(I):peptide molar ratio at which binding occurred ([1]; titration with Cu(I)): exceeding 5.0

Compound: O=C(O)CN(CC(=O)O)CC(=O)O [NTA, nitrilotriacetic acid]
- effect on electron paramagnetic spectrum of ATSM-Cu(II) complex [2]: induced significant changes
- molar equivalents sufficient/needed to remove copper from the ATSM-Cu(II) complex [3]: at least four molar equivalents

Compound: c1cnc2c(c1)ccc1cccnc12 [1,10-phenanthroline]
- effect on electron paramagnetic spectrum of ATSM-Cu(II) complex [2]: induced significant changes
- molar equivalents sufficient/needed to remove copper from the ATSM-Cu(II) complex [3]: two molar equivalents

Compound: MTSSL-CMDHSHHMGASYMDSC-MTSSL (C(MTSSL)MDHSHHMGASYMDSC(MTSSL)-NH2; N-terminus assumed; SMILES CSCC[C@H](NC(=O)[C@H](Cc1c[nH]cn1)NC(=O)[C@H](Cc1c[nH]cn1)NC(=O)[C@H](CO)NC(=O)[C@H](Cc1c[nH]cn1)NC(=O)[C@H](CC(=O)O)NC(=O)[C@H](CCSC)NC(=O)[C@@H](N)CSSCC1=CC(C)(C)N([O])C1(C)C)C(=O)NCC(=O)N[C@@H](C)C(=O)N[C@@H](CO)C(=O)N[C@@H](Cc1ccc(O)cc1)C(=O)N[C@@H](CCSC)C(=O)N[C@@H](CC(=O)O)C(=O)N[C@@H](CO)C(=O)N[C@@H](CSSCC1=CC(C)(C)N([O])C1(C)C)C(N)=O) [Pep9]
- absorption at 265 nm upon addition of Cu(I) (Cu(I) binding) [1]: did not change upon addition of Cu(I)

Compound: O=C(O)CNCC(=O)O [IDA, Imino-diacetic acid]
- effect on electron paramagnetic spectrum of ATSM-Cu(II) complex [2]: induced significant changes
- molar equivalents sufficient/needed to remove copper from the ATSM-Cu(II) complex [3]: at least four molar equivalents

— patent publication US12156922B2, “Copper-containing complex and uses thereof” (Bar-Ilan University, priority 2017, dated 2024)
